Test results published in patent US12391679B2, “Benzamide-substituted bicyclic imidazo- and pyrazolo-fused -pyridine, -pyrimide, and -pyridazine compounds for treatment of inflammatory diseases” (ONCO3R Therapeutics BV, priority 2019, dated 2025).

Assays:
SIK3 = target: T1, SIK3 (Homo sapiens, UniProt Q9Y2K2); test: ADP-Glo kinase assay, SIK3; type: biochemical
T1 construct: purchased SignalChem S12-11G-100
In short: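 Steps: add enzyme–substrate mixture; start with diluted ATP; incubate RT 120 min; add ADP-Glo Reagent to terminate and remove unconsumed ATP, 40 min; add detection reagent, 30 min; read luminescence. DMSO at 1% and staurosporine at 10 μM (final) define assay windows.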

[1] = tested on: LPS-induced TNFα in monocyte-derived macrophages; test: MdM assay: LPS-triggered TNFα (ELISA); type: cell-based, human; settings: Macrophage; human MdM; LPS 200 ng/mL; supernatant after 20 h; inhibition of TNFα; read-out: TNFα EC50
In short: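 TNFα secretion quantified by streptavidin-HRP/luminol sandwich ELISA in supernatants collected 20 h after LPS (200 ng/mL). Macrophages derived from magnetically isolated human CD14+ monocytes were used at day 10, with compound added 1 h before LPS; final DMSO 0.2%.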

T1 sequence (Q9Y2K2 59-365 limits assumed): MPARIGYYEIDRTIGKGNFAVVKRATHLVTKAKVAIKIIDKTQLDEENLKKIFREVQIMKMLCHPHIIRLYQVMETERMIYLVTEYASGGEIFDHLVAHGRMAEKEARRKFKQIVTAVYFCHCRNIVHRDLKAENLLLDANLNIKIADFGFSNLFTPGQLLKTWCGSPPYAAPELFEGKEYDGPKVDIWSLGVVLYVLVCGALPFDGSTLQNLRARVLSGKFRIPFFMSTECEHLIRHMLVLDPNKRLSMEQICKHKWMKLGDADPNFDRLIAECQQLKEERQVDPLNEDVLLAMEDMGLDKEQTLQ

| IC50 (SIK3) | EC50 [1] | SMILES |
| --- | --- | --- |
| 0.01 to 10 nM | 1000 to 5000 nM | COc1cc(-c2cnn3cc(C4(C(N)=O)CCC4)ccc23)cc(OC(F)F)c1C(=O)N[C@@H]1C[C@@H]1F [Cpd 254, 4-[6-(1-carbamoylcyclobutyl)pyrazolo[1,5-a]pyridin-3-yl]-2-(difluoromethoxy)-N-[(1R,2S)-2-fluorocyclopropyl]-6-methoxy-benzamide] |
| 0.01 to 10 nM | 1000 to 5000 nM | COc1cc(-c2cnn3cc(C(C)(C)N)ccc23)cc(OC(F)F)c1C(=O)N[C@@H]1C[C@@H]1F [Cpd 256, 4-[6-(1-amino-1-methyl-ethyl)pyrazolo[1,5-a]pyridin-3-yl]-2-(difluoromethoxy)-N-[(1R,2S)-2-fluorocyclopropyl]-6-methoxy-benzamide] |
| 0.01 to 10 nM | 100 to 1000 nM | COc1cc(-c2cnn3cc(C4(O)CCC4)ccc23)cc(OC(F)F)c1C(=O)N[C@@H]1C[C@@H]1F [Cpd 266, 2-(difluoromethoxy)-N-[(1R,2S)-2-fluorocyclopropyl]-4-[6-(1-hydroxycyclobutyl)pyrazolo[1,5-a]pyridin-3-yl]-6-methoxy-benzamide] |
| 0.01 to 10 nM | 100 to 1000 nM | COc1cc(-c2cnn3cc(C(C)(C)COS(C)(=O)=O)ccc23)cc(OC(F)F)c1C(=O)N[C@@H]1C[C@@H]1F [Cpd 267, [2-[3-[3-(difluoromethoxy)-4-[[(1R,2S)-2-fluorocyclopropyl]carbamoyl]-5-methoxy-phenyl]pyrazolo[1,5-a]pyridin-6-yl]-2-methyl-propyl]methanesulfonate] |
| 0.01 to 10 nM | 100 to 1000 nM | COc1cc(-c2cnn3cc(C(C)(C)CN4CCOCC4)ccc23)cc(OC(F)F)c1C(=O)N[C@@H]1C[C@@H]1F [Cpd 269, 2-(difluoromethoxy)-4-[6-(1,1-dimethyl-2-morpholino-ethyl)pyrazolo[1,5-a]pyridin-3-yl]-N-[(1R,2S)-2-fluorocyclopropyl]-6-methoxy-benzamide] |

| SMILES | IC50 (SIK3) | EC50 [1] |
| --- | --- | --- |
| COc1cc(-c2cnn3cc(C4(N)CCC4)ccc23)cc(OC(F)F)c1C(=O)N[C@@H]1C[C@@H]1F [Cpd 261, 4-[6-(1-aminocyclobutyl)pyrazolo[1,5-a]pyridin-3-yl]-2-(difluoromethoxy)-N-[(1R,2S)-2-fluorocyclopropyl]-6-methoxy-benzamide] | 0.01 to 10 nM | 1000 to 5000 nM |
